row,SMILES,melting point
1,"COc1ccc(CN2CCc3cc(O)ccc3C2)c(OC)c1 [B25, 2-(2,4-Dimethoxybenzyl)-1,2,3,4-tetrahydroisoquinolin-6-ol]",149 to 152 °C
2,"COc1cc(OC)cc(C(=O)N2CCc3cc(OCc4ccccc4)ccc3C2=O)c1 [compound 132, 6-Benzyloxy-2-(3,5-dimethoxybenzoyl)-3,4-dihydro-2H-isoquinoline-1-one]",158 to 159 °C
3,"COc1ccc(CCN2CCc3cc(OCc4ccccc4)c(OC)cc3C2)cc1 [compound 14, 6-Benzyloxy-7-methoxy-2-(4-methoxyphenethyl)-1,2,3,4-tetrahydroisoquinoline]",88 to 89 °C
4,"CCOc1cccc(CN2CCc3cc(O)ccc3C2)c1 [B18, 2-(3-Ethoxybenzyl)-1,2,3,4-tetrahydroisoquinolin-6-ol]",120 to 121 °C
5,"CCOc1cc(CN2CCc3cc(O)ccc3C2)cc(OCC)c1OCC [B27, 2-(3,4,5-triethoxybenzyl)-1,2,3,4-tetrahydroisoquinolin-6-ol]",140 to 142 °C
6,"COc1ccc(C(=O)N2CCc3cc(O)ccc3C2)cc1OC [B10, 2-(3,4-Dimethoxybenzoyl)-1,2,3,4-tetrahydroisoquinolin-6-ol]",58 to 77 °C
7,"COc1cccc(CN2CCc3cc(O)ccc3C2)c1 [compound 37, 6-Hydroxy-2-(3-methoxybenzyl)-1,2,3,4-tetrahydroisoquinoline]",223 to 224 °C
8,"COc1cccc(CN2CCc3cc(O)c(OC)cc3C2C)c1 (centres unmarked) [compound 253, 2-(3-Methoxybenzyl)-1,2,3,4-tetrahydro-7-methoxy-1-methylisoquinolin-6-ol]",97 to 99 °C
9,"COc1cc2c(cc1OS(N)(=O)=O)CC(C)(C)N(C(=O)c1cc(OC)c(OC)c(OC)c1)C2C (centres unmarked) [compound 247, Sulfamic acid 7-methoxy-1,3,3-trimethyl-2-(3,4,5-trimethoxy-benzoyl)-1,2,3,4-tetrahydro-isoquinolin-6-yl ester]",170 to 173 °C
10,"COc1cc2c(cc1OCc1ccccc1)CCN(Cc1ccncc1)C2 [compound 13, 6-Benzyloxy-7-methoxy-2-(pyridin-4-ylmethyl)-1,2,3,4-tetrahydroisoquinoline]",125 to 126 °C
11,"CCOc1ccc(C(=O)N2CCc3cc(O)ccc3C2)cc1OCC [B6, 2-(3,4-Diethoxybenzoyl)-1,2,3,4-tetrahydroisoquinolin-6-ol]",149 to 160 °C
12,"COc1cc2c(cc1OCc1ccccc1)CCN(Cc1cccnc1)C2 [compound 11, 6-Benzyloxy-7-methoxy-2-(pyridin-3-ylmethyl)-1,2,3,4-tetrahydroisoquinoline]",78 to 79 °C
13,"COc1cccc(CC2CCCc3cc(OCc4ccccc4)c(OC)cc3N2)c1 (centres unmarked) [compound 303, 7-Benzyloxy-8-methoxy-2-(3-methoxybenzyl)-2,3,4,5-tetrahydro-1H-benzoazepine]",92 to 93 °C
14,"COc1cc2c(cc1O)CC(C)(C)N(Cc1cc(OC)c(OC)c(OC)c1)C2 [compound 229, 7-Methoxy-3,3-dimethyl-2-(3,4,5-trimethoxy-benzyl)-1,2,3,4-tetrahydro-isoquinolin-6-ol]",143 to 147 °C
15,"COc1cc2c(cc1O)CCN(Cc1cccc(NS(C)(=O)=O)c1)C2 [compound 52, 6-Hydroxy-7-methoxy-2-(3-methanesulfonylaminobenzyl)-1,2,3,4-tetrahydroisoquinoline]",99 to 101 °C
16,"COc1cc2c(cc1OCc1ccccc1)CCN(Cc1cccc([N+](=O)[O-])c1)C2 [compound 10, 6-Benzyloxy-7-methoxy-2-(3-nitrobenzyl)-1,2,3,4-tetrahydroisoquinoline]",109 to 110 °C
17,"COc1ccc(OC)c(CN2CCc3cc(O)ccc3C2)c1 [B19, 2-(2,5-Dimethoxybenzyl)-1,2,3,4-tetrahydroisoquinolin-6-ol]",178 to 192 °C
18,"COc1cc(OC)c(OC)cc1CN1CCc2cc(O)ccc2C1 [B26, 2-(2,4,5-Trimethoxybenzyl)-1,2,3,4-tetrahydroisoquinolin-6-ol]",188 to 191 °C
19,"CCOc1cccc(C(=O)N2CCc3cc(O)ccc3C2)c1 [B4, 2-(3-Ethoxybenzoyl)-1,2,3,4-tetrahydroisoquinolin-6-ol]",150 to 151 °C
20,"COc1ccc(CN2CCc3cc(O)ccc3C2)cc1 [B17, 2-(4-methoxybenzyl)-1,2,3,4-tetrahydroisoquinolin-6-ol]",158 to 160 °C
21,"COc1cc(OC)cc(C(=O)N2CCc3cc(O)ccc3C2=O)c1 [compound 137, 2-(3,5-Dimethoxybenzoyl)-6-hydroxy-3,4-dihydro-2H-isoquinoline-1-one]",178 to 179 °C

# The next lines start with the values.
row,melting point,SMILES
1,101 to 102 °C,"COc1ccccc1CN1Cc2cc(OC)c(OCc3ccccc3)cc2C(OC)C1 (centres unmarked) [F19, 6-Benzyloxy-4,7-dimethoxy-2-(2-methoxybenzyl)-1,2,3,4-tetrahydroisoquinoline]"
2,70 to 72 °C,"COc1cc(OC)c(C(=O)N2CCc3cc(OCc4ccccc4)c(OC)cc3C2)c(OC)c1 [F1, 6-Benzyloxy-7-methoxy-2-(2,4,6-trimethoxybenzoyl)-1,2,3,4-tetrahydroisoquinoline]"
3,115 to 116 °C,"COc1cccc(CN2Cc3cc(OC)c(OCc4ccccc4)cc3C(O)C2)c1 (centres unmarked) [F17, 6-Benzyloxy-7-methoxy-2-(3-methoxybenzyl)-1,2,3,4-tetrahydroisoquinolin-4-ol]"
4,129 to 131 °C,"COc1cc(OC)c(CN2CCc3cc(OCc4ccccc4)c(OC)cc3C2)c(OC)c1 [F2, 6-Benzyloxy-7-methoxy-2-(2,4,6-trimethoxybenzyl)-1,2,3,4-tetrahydroisoquinoline]"
5,134 to 135 °C,"CCOC1CN(Cc2cccc(OC)c2)Cc2cc(OC)c(O)cc21 (centres unmarked) [F35, 4-Ethoxy-7-methoxy-2-(3-methoxy-benzyl)-1,2,3,4-tetrahydroisoquinolin-6-ol]"
6,161 to 162 °C,"COc1cc2c(cc1OCc1ccccc1)CCN(Cc1ccc(C#N)cc1)C2 [29A, 6-Benzyloxy-2-(4-cyanobenzyl)-7-methoxy-1,2,3,4-tetrahydroisoquinoline]"
7,89 to 90 °C,"COc1cc2c(cc1OCc1ccccc1)C(OC)CN(Cc1cc(OC)c(OC)c(OC)c1)C2 (centres unmarked) [F22, 6-Benzyloxy-4,7-dimethoxy-2-(3,4,5-trimethoxybenzyl)-1,2,3,4-tetrahydroisoquinoline]"
8,51 to 54 °C,"COc1cc2c(cc1O)C(OC)CN(Cc1cc(OC)c(OC)c(OC)c1)C2 (centres unmarked) [F33, 4,7-Dimethoxy-2-(3,4,5-trimethoxybenzyl)-1,2,3,4-tetrahydro-isoquinolin-6-ol]"
9,84 to 85 °C,"COc1ccc(CN2Cc3cc(OC)c(O)cc3C(OC)C2)cc1 (centres unmarked) [F32, 4,7-Dimethoxy-2-(4-methoxybenzyl)-1,2,3,4-tetrahydro-isoquinolin-6-ol]"
10,96 to 97 °C,"COc1cccc(CN2Cc3cc(OC)c(OCc4ccccc4)cc3C(OC)C2)c1 (centres unmarked) [F20, 6-Benzyloxy-4,7-dimethoxy-2-(3-methoxybenzyl)-1,2,3,4-tetrahydroisoquinoline]"
11,84 to 85 °C,"CCOC1CN(Cc2ccc(OC)cc2)Cc2cc(OC)c(OCc3ccccc3)cc21 (centres unmarked) [F25, 6-Benzyloxy-4-ethoxy-7-methoxy-2-(4-methoxybenzyl)-1,2,3,4-tetrahydroisoquinoline]"

# Source: patent US8394825B2, “Compound” (Sterix Limited, priority 2007, dated 2013)
